# Experimental data from patent US10336762B2 (priority 2017, dated 2019).
# Like-named read-outs stand apart in the source and are kept apart here.
# What was measured:
# TNFα = experiment: cells; format: cell-based, human; conditions: Homo sapiens, Monocyte, LPS-stimulated human monocytes, read-out: EC50 TNF
# IRAK4 enzyme = IRAK4 enzyme (Homo sapiens (Human), UniProt Q9NWZ3); experiment: biochemical; format: biochemical; conditions: IRAK4 enzyme, 500 μM ATP
# Chain of IRAK4 enzyme (Q9NWZ3 whole entry): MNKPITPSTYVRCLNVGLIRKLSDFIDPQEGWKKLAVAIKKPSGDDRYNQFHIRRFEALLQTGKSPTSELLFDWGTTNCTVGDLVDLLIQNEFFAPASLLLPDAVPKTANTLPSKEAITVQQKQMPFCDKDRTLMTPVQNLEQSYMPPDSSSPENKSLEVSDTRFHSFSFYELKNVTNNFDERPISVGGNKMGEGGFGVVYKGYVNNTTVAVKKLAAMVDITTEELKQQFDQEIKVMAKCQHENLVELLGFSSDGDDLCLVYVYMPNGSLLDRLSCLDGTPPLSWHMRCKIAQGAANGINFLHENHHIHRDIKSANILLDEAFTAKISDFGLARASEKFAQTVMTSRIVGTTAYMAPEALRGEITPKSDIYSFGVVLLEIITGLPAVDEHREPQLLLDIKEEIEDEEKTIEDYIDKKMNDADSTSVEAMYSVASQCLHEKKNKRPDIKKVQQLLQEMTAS
SMILES,EC50 (TNFα; TNFα by TR-FRET) [nM],IC50 (IRAK4 enzyme; TR-FRET) [nM],EC50 (TNFα; TNFα content) [nM],IC50 (IRAK4 enzyme; TR-FRET (HTRF)) [nM]
"CC1(C)CC1CNC(=O)c1cnc(-c2ccc3cc(C#N)cnn23)cc1NC12CCC(O)(CC1)CC2 (centres unmarked) [Example 924, 6-(3-cyanopyrrolo[1,2-b]pyridazin-7-yl)-N-((2,2-dimethylcyclopropyl)methyl)-4-((4-hydroxy-bicyclo[2.2.2]octan-1-yl)amino)nicotinamide]",119,1,–,–
"CNC(=O)c1cnc(-c2ccc3cc(C#N)cnn23)cc1N[C@H]1CCC[C@@H](C(=O)NC)C1 [Example 470, 6-(3-cyanopyrrolo[1,2-b]pyridazin-7-yl)-N-methyl-4-(((1S,3R)-3-(methyl-carbamoyl)cyclohexyl)amino)nicotinamide]",–,–,440,25
"CNC(=O)c1cnc(-c2ccc3cc(C#N)cnn23)cc1NC12CCC(NC(C)=O)(CC1)C2 [Example 473, 4-((4-acetamido-bicyclo[2.2.1]heptan-1-yl)amino)-6-(3-cyano-pyrrolo[1,2-b]pyridazin-7-yl)-N-methylnicotinamide]",–,–,33,1
"CC(C)(O)[C@H](F)CNC(=O)c1cnc(-c2ccc3cc(C#N)cnn23)cc1Nc1ccc(-n2ccnn2)cc1 [Example 180, (R)-4-((4-(1H-1,2,3-triazol-1-yl)phenyl)amino)-6-(3-cyanopyrrolo[1,2-b]pyridazin-7-yl)-N-(2-fluoro-3-hydroxy-3-methylbutyl)nicotinamide]",–,< 1,34,–
"CC(C)(O)[C@H](F)CNC(=O)c1cnc(-c2ccc3cc(C#N)cnn23)cc1Nc1cnc2c(c1)CC(=O)N2 [Example 668, (R)-6-(3-cyanopyrrolo[1,2-b]pyridazin-7-yl)-N-(2-fluoro-3-hydroxy-3-methylbutyl)-4-((2-oxo-2,3-dihydro-1H-pyrrolo[2,3-b]pyridin-5-yl)amino)nicotinamide]",–,–,165,1
"CC(C)(O)[C@H](F)CNC(=O)c1cnc(-c2ccc3cc(C#N)cnn23)cc1N[C@H]1CC[C@H](c2nncs2)CC1 [Example 642, 4-(((1r,4R)-4-(1,3,4-thiadiazol-2-yl)cyclo-hexyl)amino)-6-(3-cyanopyrrolo[1,2-b]pyridazin-7-yl)-N-((R)-2-fluoro-3-hydroxy-3-methylbutyl)nicotinamide]",–,–,13,< 1
"COC(C)(C)[C@H](F)CNC(=O)c1cnc(-c2ccc3cc(C#N)cnn23)cc1NC12CCC(O)(CC1)CC2 [Example 354, (R)-6-(3-cyanopyrrolo[1,2-b]pyridazin-7-yl)-N-(2-fluoro-3-methoxy-3-methylbutyl)-4-((4-hydroxybicyclo[2.2.2]octan-1-yl)amino) nicotinamide]",–,< 1,19,–
"N#Cc1cnn2c(-c3cc(NC45CCC(O)(CC4)CC5)c(C(=O)NCC4(F)CC4)cn3)ccc2c1 [Example 709, 6-(3-cyanopyrrolo[1,2-b]pyridazin-7-yl)-N-((1-fluorocyclopropyl)methyl)-4-((4-hydroxy-bicyclo[2.2.2]octan-1-yl)amino)nicotinamide]",–,–,151,3
"N#Cc1cnn2c(-c3cc(NC45CCC(O)(CC4)CC5)c(C(=O)NCC(=O)N4CCN(C5COC5)CC4)cn3)ccc2c1 [Example 796, 6-(3-cyanopyrrolo[1,2-b]pyridazin-7-yl)-4-((4-hydroxybicyclo[2.2.2]octan-1-yl)amino)-N-(2-(4-(oxetan-3-yl)piperazin-1-yl)-2-oxoethyl)nicotinamide]",–,–,75,2
"CC(C)(O)[C@H](F)CNC(=O)c1cnc(-c2ccc3cc(C#N)cnn23)cc1Nc1cccc(OC(F)F)c1 [Example 608, (R)-6-(3-cyanopyrrolo[1,2-b]pyridazin-7-yl)-4-((3-(difluoromethoxy)phenyl)amino)-N-(2-fluoro-3-hydroxy-3-methylbutyl) nicotinamide]",–,–,123,1
"CC(C)(O)[C@H](F)CNC(=O)c1cnc(-c2ccc3cc(C#N)cnn23)cc1NC1C2CCC1CN(S(C)(=O)=O)C2 (stereo partly drawn) [Example 31, 6-(3-cyanopyrrolo[1,2-b]pyridazin-7-yl)-N-((R)-2-fluoro-3-hydroxy-3-methylbutyl)-4-((3-(methylsulfonyl)-3-azabicyclo[3.2.1]octan-8-yl)amino)nicotinamide]",–,16,757,–
"CC(=O)OC12CCC(Nc3cc(-c4ccc5cc(C#N)cnn45)ncc3C(=O)NC[C@@H](F)C(C)(C)OC(C)=O)(CC1)CC2 [Example 417, 4-((5-(((R)-3-acetoxy-2-fluoro-3-methylbutyl)carbamoyl)-2-(3-cyanopyrrolo[1,2-b]pyridazin-7-yl)pyridin-4-yl)amino)bicyclo[2.2.2]octan-1-yl acetate]",–,–,151,5
"CC(C)Nc1cc(-c2ccc3cc(C#N)cnn23)ncc1C(=O)NCCC(C)(C)N [Example 252, N-(3-amino-3-methyl-butyl)-6-(3-cyano-pyrrolo[1,2-b]pyridazin-7-yl)-4-(isopropylamino) nicotinamide]",–,2,78,–
"Cc1nsc(Nc2cc(-c3ccc4cc(C#N)cnn34)ncc2C(=O)NC[C@@H](F)C(C)(C)O)n1 [Example 142, (R)-6-(3-cyanopyrrolo[1,2-b]pyridazin-7-yl)-N-(2-fluoro-3-hydroxy-3-methylbutyl)-4-((3-methyl-1,2,4-thiadiazol-5-yl)amino) nicotinamide]",–,4,169,–
"CC(C)(O)[C@H](F)CNC(=O)c1cnc(-c2ccc3cc(C#N)cnn23)cc1Nc1ccc(-c2cn[nH]c2)cn1 [Example 956, (R)-4-((5-(1H-pyrazol-4-yl)pyridin-2-yl)amino)-6-(3-cyanopyrrolo[1,2-b]pyridazin-7-yl)-N-(2-fluoro-3-hydroxy-3-methyl-butyl)nicotinamide]",31,< 1,–,–
"COC(=O)N1CC[C@@H](CNC(=O)c2cnc(-c3ccc4cc(C#N)cnn34)cc2NC23CCC(O)(CC2)CC3)C1 [Example 742, (S)-methyl 3-((6-(3-cyano-pyrrolo[1,2-b]pyridazin-7-yl)-4-((4-hydroxy-bicyclo[2.2.2]octan-1-yl)amino)nicotinamido)methyl)pyrrolidine-1-carboxylate]",–,–,126,1
"CC(C)(O)[C@H](F)CNC(=O)c1cnc(-c2ccc3cc(C#N)cnn23)cc1NC12CCC(C(=O)N3CC(F)C3)(CC1)CC2 [Example 400, (R)-6-(3-cyanopyrrolo[1,2-b]pyridazin-7-yl)-N-(2-fluoro-3-hydroxy-3-methylbutyl)-4-((4-(3-fluoroazetidine-1-carbonyl)bicyclo[2.2.2]octan-1-yl)amino) nicotinamide]",–,–,21,1
"CC(C)(O)[C@H](F)CNC(=O)c1cnc(-c2ccc3cc(C#N)cnn23)cc1Nc1cccnc1 [Example 4, (R)-6-(3-cyanopyrrolo[1,2-b]pyridazin-7-yl)-N-(2-fluoro-3-hydroxy-3-methylbutyl)-4-(pyridin-3-ylamino)nicotinamide]",–,< 1,33,–
"C=CC(=O)NC12CCC(Nc3cc(-c4ccc5cc(C#N)cnn45)ncc3C(=O)NC[C@@H](F)C(C)(C)O)(CC1)CC2 [Example 424, (R)-4-((4-acrylamidobicyclo[2.2.2]octan-1-yl)amino)-6-(3-cyanopyrrolo[1,2-b]pyridazin-7-yl)-N-(2-fluoro-3-hydroxy-3-methyl-butyl)nicotinamide]",–,–,18,1
